Measured values as given in PMC9101684, “Hempseed (Cannabis sativa) Peptide H3 ([sequence]) Exerts Cholesterol-Lowering Effects in Human Hepatic Cell Line” (Nutrients, 2022).
Where no end group is shown, it is not given here.

Key:
[1] = molecular target: T1, HMGCoAR (catalytic domain) (Homo sapiens, UniProt P04035); assay: HMGCoAR activity assay (NADPH oxidation, absorbance 340 nm); type: biochemical; conditions: purified catalytic domain of HMGCoAR; H3 10-1000 μM; 37 °C; absorbance 340 nm at 0 and 10 min; three independent experiments in triplicate
T1 construct: HMGCoAR (catalytic domain) (2 µL); purchased Sigma-Aldrich
T1 sequence (P04035 426-888 limits assumed): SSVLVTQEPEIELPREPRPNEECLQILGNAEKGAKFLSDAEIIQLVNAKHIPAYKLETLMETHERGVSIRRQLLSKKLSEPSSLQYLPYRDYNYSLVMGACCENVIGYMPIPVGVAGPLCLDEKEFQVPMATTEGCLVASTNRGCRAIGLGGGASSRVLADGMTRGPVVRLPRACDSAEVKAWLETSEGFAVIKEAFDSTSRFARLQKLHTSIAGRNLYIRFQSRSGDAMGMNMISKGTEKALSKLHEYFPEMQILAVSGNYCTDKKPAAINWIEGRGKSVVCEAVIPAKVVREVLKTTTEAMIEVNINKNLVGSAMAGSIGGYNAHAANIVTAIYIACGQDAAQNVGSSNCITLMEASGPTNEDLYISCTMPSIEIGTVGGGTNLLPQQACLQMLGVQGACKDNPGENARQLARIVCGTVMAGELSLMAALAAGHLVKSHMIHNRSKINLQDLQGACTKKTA

[2] = tested on: HepG2 cells; assay: MTT assay, HepG2 cell viability; type: cell-based, human; conditions: 48 h
Procedure: A total of 3 × 10^4 HepG2 cells/well were seeded in 96-well plates and treated with peptide H3 (0.00001, 0.0001, 0.001, 0.01, 0.1, and 1.0 mM) or vehicle (H2O) in complete growth media at 37 °C for 48 h under 5% CO2 atmosphere. MTT experiments were performed using the protocol reported in the Supplementary Materials.
HMGCoAR were provided in the HMGCoAR Assay Kit (Sigma Aldrich SRL, Milan, Italy). The experiments were carried out following the manufacturer instructions at 37 °C. […] Subsequently, the samples were mixed and the absorbance at 340 nm read by the microplate reader Synergy H1 […]
vehicle (H2O) in complete growth media for at 37 °C under 5% CO2 atmosphere for 48 h. […] After 5 min of slow shaking, the absorbance at 575 nm was read on the Synergy H1 fluorescence plate reader (Biotek, Bad Friedrichshall, Germany). […]
For the experiments, a total of 3 X 10 4 HepG2 cells/well were seeded in 96-well plates. […] The reaction was stopped with 2 M H2SO4 and then the absorbance at 450 nm was measured using the microplate reader Synergy H1 (Winooski, VT, USA). After the read, cells were stained by adding 1 X Janus Green stain, incubating for 5 min at RT. […]
Afterward 100 µL 0.5 M HCl for well were added and incubated for 10 min. After 10 min shaking, the OD at 595 nm was measured using the microplate reader Synergy H1 (Winooski, VT, USA). […]

[3] = tested on: Caco-2 cells; conditions: differentiated Caco-2; cited from earlier work
Procedure: CVD is a multifactorial pathology in which oxidative and inflammatory status as well as hypercholesterolemia are among the main risk factors. […] To achieve this goal, a deeper study was carried out for characterizing the potential effect of peptide H3 o ...

IGFLIIWV [H3]
IC50 [1]: 59 µM | reduced cell viability ([2]; 1 mM H3, mean ± S.D. of three experiments in triplicate, Figure S1): 19.63 ± 0.59% | effect on HepG2 viability ([2]; up to 100 µM, versus control cells, three experiments in triplicate): no effect on HepG2 viability was observed up to 100 µM | intestinal trans-epithelial transport [3]: transported intact by differentiated Caco-2
